{"source": "patent US10328062B2", "about": "“Biomarkers and use of MET inhibitor for treatment of cancer” (AMGEN, INC., priority 2014, dated 2019)", "tested_on": "human HCC cell lines", "assay": "HCC cell proliferation assay (CellTiter-Glo, 72 h)", "format": "cell-based", "method": "All human HCC cell lines were purchased from the American Type Culture Collection (ATCC), Japanese Collection of Research Bioresources (JCRB), Korean Cell line Bank (KCLB), Shanghai Institutes of Biological Sciences (SIBS), Zhongshan Hospital Fudan University (ZHFU), and routinely cultured in 96-well plates in ATCC's recommended growth media in the temperature of 37° C., 5% CO2 and 95% humidity. […] Luminescence was measured with a PerkinElmer EnVision® plate reader. Data will not be normalized to a control compound, rather POC (percent of control). POC=(compound treated signal/DMSO treated signal)*100. POC values were processed with the software of GraphPad Prism version 5 to calculate the absolute IC50. Time 0 (T0) reported as broken line on dose response curves were shown in the curve fitting as the percent of the net T3 DMSO control.\nThe fluorescence in situ hybridization (FISH) analysis and immunohistochemistry (IHC) staining were used to confirm c-MET amplification and high protein expression. The six sensitive and non-sensitive cell lines were selected, including MHCC97H, HCCLM3, JHH-4, JHH-5, SNU-398 and Hep3B. MHCC97H and HCCLM3 cell lines also had high levels of total MET with strong membrane staining (IHC 3+) and MET gene amplification (MET/CEP7>2.0), which were identified as Met-positive HCC. […]"}
{"molecule": "COCCOc1cnc2ccn([C@H](C)c3nnc4c(F)cc(-c5cnn(C)c5)cn34)c(=O)c2c1", "note": "[Compound M, 6-{(1R)-1-[8-fluoro-6-(1-methyl-1H-pyrazol-4-yl)[1,2,4]triazolo[4,3-a]pyridin-3-yl]ethyl}-3-(2-methoxyethoxy)-1,6-naphthyridin-5(6H)-one]", "values": [{"measurement": "drug sensitivity", "setting": "HCC cell lines with total c-MET IHC 2+, 1+ or 0", "result": "did not show dramatic drug sensitivity"}, {"measurement": "response to Compound M", "setting": "Met-positive HCC (MHCC97H, HCCLM3: IHC 3+, MET/CEP7>2.0)", "result": "significant and favorable response"}]}
